Structures are written as SMILES. “And” between values parts separate entries of the source, which are not always exact repeats. Identical values can stand only once. Counter-ions that a name gives are not always drawn. Like-named read-outs stand apart in the source and are kept apart here.

25 compounds from patent US10975056B2 (GlaxoSmithKline Intellectual Property Development Limited, priority 2016, dated 2021) can be followed below.

The target in one test is DNMT1 (Homo sapiens, UniProt P26358). The test can be described thus: DNMT1 biochemical activity, breaklight assay and/or SPA assay.
Test [1] relates to erythroid progenitor cells (EPCs). Kind of test: Fetal hemoglobin (HbF) ELISA in day 7 erythroid progenitor cells.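 For EPC ELISA (pEC50 category): for fetal hemoglobin induction normalized to vehicle-treated cells.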 Format: cell-based, human. As to conditions: Homo sapiens, Erythroid progenitor cell, read-out: EPC ELISA (pEC50 category) (converted). Put shortly:
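CD34+-derived EPCs, 1,000 cells/well, rhEPO 3 U/mL; Compound A 22-pt series, […]; 5 d, 37° C, 5% CO2. Freeze-thaw lysis, anti-HbF capture + HRP anti-HbF, TMB, OD450. Normalized to DMSO wells.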

Where [2] appears, read: binned activity in either the breaklight or the SPA assay, read-out: DNMT1 BioChemical (pIC50 category) (converted).
[3] abbreviates: binned activity in either the breaklight or the SPA assay.
Where [4] appears, read: breaklight assay and/or SPA assay, repeated experimental runs, read-out: average pIC50 against DNMT1 (converted).

Chain of DNMT1 (P26358 whole entry, looked up): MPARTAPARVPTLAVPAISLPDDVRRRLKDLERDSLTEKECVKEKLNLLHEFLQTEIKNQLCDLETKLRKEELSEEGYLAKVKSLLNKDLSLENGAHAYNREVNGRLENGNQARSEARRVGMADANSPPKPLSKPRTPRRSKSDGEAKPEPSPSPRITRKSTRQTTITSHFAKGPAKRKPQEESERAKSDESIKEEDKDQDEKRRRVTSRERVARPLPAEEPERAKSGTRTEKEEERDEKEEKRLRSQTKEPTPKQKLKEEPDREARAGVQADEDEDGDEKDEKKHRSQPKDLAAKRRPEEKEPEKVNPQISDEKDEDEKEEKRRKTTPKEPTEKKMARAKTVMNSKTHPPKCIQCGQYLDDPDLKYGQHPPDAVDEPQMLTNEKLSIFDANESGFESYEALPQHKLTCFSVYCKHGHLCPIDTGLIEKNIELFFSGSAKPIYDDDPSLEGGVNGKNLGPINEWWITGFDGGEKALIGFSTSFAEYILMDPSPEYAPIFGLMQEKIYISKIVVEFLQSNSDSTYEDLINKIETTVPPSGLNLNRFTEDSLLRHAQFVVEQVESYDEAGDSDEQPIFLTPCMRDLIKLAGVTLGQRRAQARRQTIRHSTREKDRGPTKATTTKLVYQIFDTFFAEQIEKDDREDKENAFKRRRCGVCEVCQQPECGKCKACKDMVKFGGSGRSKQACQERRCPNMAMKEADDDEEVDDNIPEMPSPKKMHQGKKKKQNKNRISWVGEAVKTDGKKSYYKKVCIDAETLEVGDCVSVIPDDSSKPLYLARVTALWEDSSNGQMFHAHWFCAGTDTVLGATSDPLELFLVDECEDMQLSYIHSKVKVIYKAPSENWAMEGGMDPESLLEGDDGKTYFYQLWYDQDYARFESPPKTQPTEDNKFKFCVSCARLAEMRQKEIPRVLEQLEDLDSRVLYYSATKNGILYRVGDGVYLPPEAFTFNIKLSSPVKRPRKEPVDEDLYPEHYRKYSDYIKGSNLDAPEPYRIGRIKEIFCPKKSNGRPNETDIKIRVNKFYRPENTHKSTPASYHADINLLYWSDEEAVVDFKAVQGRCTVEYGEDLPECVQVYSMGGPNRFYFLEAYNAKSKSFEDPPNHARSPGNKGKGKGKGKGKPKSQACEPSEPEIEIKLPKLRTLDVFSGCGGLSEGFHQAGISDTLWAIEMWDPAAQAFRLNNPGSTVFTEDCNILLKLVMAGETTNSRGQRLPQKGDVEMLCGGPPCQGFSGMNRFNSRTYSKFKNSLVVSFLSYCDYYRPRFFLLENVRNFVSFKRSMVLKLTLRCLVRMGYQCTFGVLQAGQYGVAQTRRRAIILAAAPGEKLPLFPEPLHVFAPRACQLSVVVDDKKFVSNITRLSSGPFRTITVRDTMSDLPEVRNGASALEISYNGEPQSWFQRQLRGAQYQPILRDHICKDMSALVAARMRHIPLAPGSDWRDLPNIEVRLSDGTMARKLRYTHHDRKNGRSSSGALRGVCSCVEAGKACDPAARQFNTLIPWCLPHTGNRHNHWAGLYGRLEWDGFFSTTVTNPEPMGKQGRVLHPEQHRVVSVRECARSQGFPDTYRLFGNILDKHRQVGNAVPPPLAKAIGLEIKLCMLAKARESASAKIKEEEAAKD

Take `CCc1c(C#N)c(SC(C(N)=O)c2ccccc2)nc(N(C)CCC(N)=O)c1C#N` (stereo not shown) [Example 230, 3-((6-(2-Amino-2-oxo-1-phenylethylthio)-3,5-dicyano-4-ethylpyridin-2-yl)(methyl)amino)propanamide]: the IC50 on DNMT1 (setting [2]) was 316 to 1000 nM. The EC50 in test [1] (HbF ELISA, day 7 EPCs, 5 days) is 1000 to 31600 nM.
As for `CCc1c(C#N)c(SC(C(N)=O)c2ccccc2)nc(N2CCC3(CCNC3)CC2)c1C#N.O=C(O)C(F)(F)F` (stereo not shown) [Example 17, 2-((3,5-dicyano-4-ethyl-6-(2,8-diazaspiro[4.5]decan-8-yl)pyridin-2-yl)thio)-2-phenylacetamide; 2,2,2-trifluoroacetic acid], the “DNMT1 BioChemical (pIC50 category)” value at DNMT1 (setting [3]) was “D (Category D: ≥6.5)”. Also, in test [1], the EC50 was below 316 nM.
Consider `CCc1c(C#N)c(SC(C(N)=O)c2ccccc2)nc(N2CCC(N3C(=O)CCC3=O)CC2)c1C#N` (stereo not shown) [Example 252, 2-((3,5-Dicyano-6-(4-(2,5-dioxopyrrolidin-1-yl)piperidin-1-yl)-4-ethylpyridin-2-yl)thio)-2-phenylacetamide], for which, on DNMT1 (setting [3]), the “DNMT1 BioChemical (pIC50 category)” value is “D (Category D: ≥6.5)”. Moreover, in test [1] (HbF ELISA, day 7 EPCs, 5 days), the EC50 was below 316 nM.
On the same counts, the results for `CCc1c(C#N)c(SC(C(N)=O)c2ccccc2)nc(N(C)CC(=O)N2CCC(O)CC2)c1C#N` (stereo not shown) [Example 621, 2-((3,5-dicyano-4-ethyl-6-((2-(4-hydroxypiperidin-1-yl)-2-oxoethyl)(methyl)amino)pyridin-2-yl)thio)-2-phenylacetamide] are “D (Category D: ≥6.5)” and below 316 nM.
`CCc1c(C#N)c(SC(C(N)=O)c2ccc(F)cc2)nc(N2CCC(NCC(C)(C)O)CC2)c1C#N` (stereo not shown) [Example 513, 2-((3,5-dicyano-4-ethyl-6-(4-((2-hydroxy-2-methylpropyl)amino)piperidin-1-yl)pyridin-2-yl)thio)-2-(4-fluorophenyl)acetamide]: the IC50 on DNMT1 (setting [2]) is below 316 nM. Also, in test [1] (HbF ELISA, day 7 EPCs, 5 days), the EC50 is below 316 nM.
For `CCc1c(C#N)c(SC(C(N)=O)c2ccccc2)nc(N(C)CCN2[C@H](C)CC[C@@H]2C)c1C#N` (stereo partly drawn) [Example 476, 2-(3,5-dicyano-6-((2-((2S,5R)-2,5-dimethylpyrrolidin-1-yl)ethyl)(methyl)amino)-4-ethylpyridin-2-ylthio)-2-phenylacetamide], the “DNMT1 BioChemical (pIC50 category)” value on DNMT1 (setting [3]) is “D (Category D: ≥6.5)”. Besides, in test [1] (HbF ELISA, day 7 EPCs, 5 days), the EC50 was below 316 nM.
For `CCc1c(C#N)c(SC(C(N)=O)c2ccccc2)nc(N(C)CC(=O)NCCN)c1C#N` (stereo not shown) [Example 630, 2-((6-((2-amino-2-oxo-1-phenylethyl)thio)-3,5-dicyano-4-ethylpyridin-2-yl)(methyl)amino)-N-(2-aminoethyl)acetamide hydrochloride], in that order: “D (Category D: ≥6.5)” and below 316 nM.
In the case of `CCc1c(C#N)c(SC(C(N)=O)c2ccccc2)nc(N2CCCN(CC(C)(C)O)CC2)c1C#N` (stereo not shown) [Example 194, 2-((3,5-Dicyano-4-ethyl-6-(4-(2-hydroxy-2-methylpropyl)-1,4-diazepan-1-yl)pyridin-2-yl)thio)-2-phenylacetamide], the IC50 on DNMT1 (setting [2]) was 316 to 1000 nM. Further, the EC50 in test [1] (HbF ELISA, day 7 EPCs, 5 days) was below 316 nM.
As to `CCc1c(C#N)c(SC(C(N)=O)c2ccccc2)nc(N2CCC[C@H](NC3COC3)C2)c1C#N` (stereo partly drawn) [Example 640, 2-((3,5-dicyano-4-ethyl-6-((S)-3-(oxetan-3-ylamino)piperidin-1-yl)pyridin-2-yl)thio)-2-phenylacetamide], at DNMT1 (setting [3]), the “DNMT1 BioChemical (pIC50 category)” value is on record as “D (Category D: ≥6.5)”. Moreover, the EC50 in test [1] (HbF ELISA, day 7 EPCs, 5 days) was below 316 nM.
On to `CN(CC(=O)NC(CO)CO)c1nc(SC(C(N)=O)c2ccccc2)c(C#N)c(C2CC2)c1C#N` (stereo not shown) [Example 639, 2-((6-((2-amino-2-oxo-1-phenylethyl)thio)-3,5-dicyano-4-cyclopropylpyridin-2-yl)(methyl)amino)-N-(1,3-dihydroxypropan-2-yl)acetamide], for which, at DNMT1 (setting [3]), the “DNMT1 BioChemical (pIC50 category)” value is listed as “D (Category D: ≥6.5)”. Moreover, in test [1] (HbF ELISA, day 7 EPCs, 5 days), the EC50 was 1000 to 31600 nM.
On the same counts, the results for `CCc1c(C#N)c(SC(C(N)=O)c2ccccc2)nc(N2CCC(N(C)C)CC2)c1C#N` (stereo not shown) [Example 548, 2-((3,5-dicyano-6-(4-(dimethylamino)piperidin-1-yl)-4-ethylpyridin-2-yl)thio)-2-phenylacetamide] are “D (Category D: ≥6.5)” and below 316 nM.
On the same counts, the results for `CCc1c(C#N)c(SC(C(N)=O)c2ccccc2)nc(N(C)CCONC(=N)N)c1C#N` (stereo not shown) [Example 644, 2-((3,5-dicyano-4-ethyl-6-((2-(guanidinooxy)ethyl)(methyl)amino)pyridin-2-yl)thio)-2-phenylacetamide] are “D (Category D: ≥6.5)” and 1000 to 31600 nM.
On to `CCc1c(C#N)c(SC(C(N)=O)c2ccccc2)nc(SC(C(N)=O)c2ccccc2)c1C#N` (stereo not shown) [Example 276, 2,2′-((3,5-Dicyano-4-ethylpyridine-2,6-diyl)bis(sulfanediyl))bis(2-phenylacetamide)], for which the IC50 at DNMT1 (setting [2]) was 316 to 1000 nM. Moreover, the EC50 in test [1] (HbF ELISA, day 7 EPCs, 5 days) was above 31600 nM.
On the same counts, the results for `N#Cc1c(N2CCCNCC2)nc(SC(C(N)=O)c2ccccc2)c2c1CCC2` (stereo not shown) [Example 171, 2-((4-Cyano-3-(1,4-diazepan-1-yl)-6,7-dihydro-5H-cyclopenta[c]pyridin-1-yl)thio)-2-phenylacetamide] are 316 to 1000 nM and above 31600 nM.
`CCc1c(C#N)c(SC(C(N)=O)c2ccccc2)nc(N2CC3CC2CN3C)c1C#N` (stereo not shown) [Example 303, 2-((3,5-Dicyano-4-ethyl-6-(5-methyl-2,5-diazabicyclo[2.2.1]heptan-2-yl)pyridin-2-yl)thio)-2-phenylacetamide]: the IC50 on DNMT1 (setting [2]) is 316 to 1000 nM; on DNMT1 (setting [4]), 316 to 1000 nM and 631 nM. Besides, the EC50 in test [1] (HbF ELISA, day 7 EPCs, 5 days) is 316 to 1000 nM.
In the case of `CCc1c(C#N)c(SCc2ccc(N(C)S(C)(=O)=O)cc2)nc(N2CCOC(CN(C)C)C2)c1C#N` (stereo not shown) [Example 571, N-(4-(((3,5-dicyano-6-(2-((dimethylamino)methyl)morpholino)-4-ethylpyridin-2-yl)thio)methyl)phenyl)-N-methylmethanesulfonamide], on DNMT1 (setting [3]), the “DNMT1 BioChemical (pIC50 category)” value is recorded as “D (Category D: ≥6.5)”. In test [1] (HbF ELISA, day 7 EPCs, 5 days), the EC50 was below 316 nM.
For the compound `CCc1c(C#N)c(SC(C(N)=O)c2ccccc2)nc(N2CCC(N3[C@@H](C)CC[C@@H]3C)CC2)c1C#N` (stereo partly drawn) [Example 462, 2-((3,5-dicyano-6-(4-((2S,5S)-2,5-dimethylpyrrolidin-1-yl)piperidin-1-yl)-4-ethylpyridin-2-yl)thio)-2-phenylacetamide], the “DNMT1 BioChemical (pIC50 category)” value on DNMT1 (setting [3]) was “D (Category D: ≥6.5)”. For the same compound, the EC50 in test [1] (HbF ELISA, day 7 EPCs, 5 days) is below 316 nM.
On the same counts, the results for `CCc1c(C#N)c(SC(C(N)=O)c2ccccc2)nc(N2CCC(NCC3(C)COC3)CC2)c1C#N` (stereo not shown) [Example 449, 2-((3,5-dicyano-4-ethyl-6-(4-(((3-methyloxetan-3-yl)methyl)amino)piperidin-1-yl)pyridin-2-yl)thio)-2-phenylacetamide] are “D (Category D: ≥6.5)” and below 316 nM.
For `CCc1c(C#N)c(SCc2ccc(CC(=O)NCCO)cc2)nc(N2CCCN(C)CC2)c1C#N` [Example 343, 2-(4-(((3,5-Dicyano-4-ethyl-6-(4-methyl-1,4-diazepan-1-yl)pyridin-2-yl)thio)methyl)phenyl)-N-(2-hydroxyethyl)acetamide], in that order: “D (Category D: ≥6.5)” and 316 to 1000 nM.
For `CCc1c(C#N)c(S[C@@H](C(N)=O)c2ccccc2)nc(N2CC[C@H](N)[C@H](F)C2)c1C#N` [Example 509, (R)-2-((6-((3R,4S)-4-amino-3-fluoropiperidin-1-yl)-3,5-dicyano-4-ethylpyridin-2-yl)thio)-2-phenylacetamide • (0.67)2,2,2-trifluoroacetate • (0.33)methanesulfonate], in that order: “D (Category D: ≥6.5)” and below 316 nM.
Take `CCc1c(C#N)c(SC(C(N)=O)c2ccccc2)nc(N2CC(N)C2)c1C#N` (stereo not shown) [Example 281, 2-((6-(3-Aminoazetidin-1-yl)-3,5-dicyano-4-ethylpyridin-2-yl)thio)-2-phenylacetamide]: on DNMT1 (setting [3]), the “DNMT1 BioChemical (pIC50 category)” value is on record as “D (Category D: ≥6.5)”. For the same compound, the EC50 in test [1] (HbF ELISA, day 7 EPCs, 5 days) is 316 to 1000 nM.
On the same counts, the results for `CCc1c(C#N)c(SC(C(N)=O)c2ccccc2)nc(N(C)CC(=O)N(C)CC2(CO)CC2)c1C#N` (stereo not shown) [Example 609, 2-((6-((2-amino-2-oxo-1-phenylethyl)thio)-3,5-dicyano-4-ethylpyridin-2-yl)(methyl)amino)-N-((1-(hydroxymethyl)cyclopropyl)methyl)-N-methylacetamide] are “D (Category D: ≥6.5)” and below 316 nM.
On the same counts, the results for `CCc1c(C#N)c(SCc2ccc(CS(C)(=O)=O)cc2)nc(N2CCC(N)CC2)c1C#N` [Example 499, 2-(4-aminopiperidin-1-yl)-4-ethyl-6-((4-((methylsulfonyl)methyl)benzyl)thio)pyridine-3,5-dicarbonitrile] are “D (Category D: ≥6.5)” and below 316 nM.
Take `CCc1c(C#N)c(S[C@H](C(N)=O)c2ccccc2)nc(N2CC[C@H](N)[C@H](F)C2)c1C#N` [Example 540, (S)-2-((6-((3R,4S)-4-amino-3-fluoropiperidin-1-yl)-3,5-dicyano-4-ethylpyridin-2-yl)thio)-2-phenylacetamide 2,2,2-trifluoroacetate]: the IC50 is 1000 to 31600 nM on DNMT1 (setting [2]); ≥ 1000 nM and 3160 nM on DNMT1 (setting [4]). Besides, in test [1] (HbF ELISA, day 7 EPCs, 5 days), the EC50 is below 316 nM.
Take `CCc1c(C#N)c(SC(C(N)=O)c2ccccc2)nc(N(C)CCN2CC[C@@H](N(C)C)C2)c1C#N` (stereo partly drawn) [Example 516, 2-((3,5-dicyano-6-((2-((R)-3-(dimethylamino)pyrrolidin-1-yl)ethyl)(methyl)amino)-4-ethylpyridin-2-yl)thio)-2-phenylacetamide]: the “DNMT1 BioChemical (pIC50 category)” value on DNMT1 (setting [3]) is given as “D (Category D: ≥6.5)”. Also, the EC50 in test [1] (HbF ELISA, day 7 EPCs, 5 days) was below 316 nM.
